In patent US20050165102A1, “Compositions and dosage forms for enhanced absorption” (priority 2003, published 2005):
Where a name gives a salt, the structure may show the parent alone. Read-outs that look alike come from different tables or passages of the source.

Assays:
[1] = rat, in vivo, po, 40 mg/kg
[2] = for Bioavailability: relative to iv gabapentin; for gabapentin plasma concentration rat1: 0 h
[3] = Flushed ligated colonic model in rats (gabapentin); settings: for gabapentin plasma concentration Rat1: colonic intubation 10 mg/rat
Text: The colon was flushed of fecal materials.
Each segment was observed macroscopically for irritation and any abnormality noted.

[4] = iv 1 mg/rat, 0 h

CCCCCCCCCCCC(=O)O.CN(C)C(=N)N=C(N)N [Metformin laurate]
time of plasma concentration maximum after treatment [1]: about 1 hour

CCCCCCCCCCCCOS(=O)(=O)O.NCC1(CC(=O)O)CCCCC1 [Gabapentin lauryl sulfate]
percent bioavailability versus neat drug ([2]; duodenal, dosage of 20 mg (FIG. 19C)): higher bioavailability than did the neat drug

NCC1(CC(=O)O)CCCCC1 [Gabapentin, 1-(aminomethyl)cyclohexaneacetic acid, reference compound]
Bioavailability ([2]; duodenal 5 mg/rat (14.8 / 14.0 mg/kg)): 62.5 ± 9.4%
Bioavailability ([2]; duodenal 10 mg/rat (30.6 / 29.1 mg/kg)): 44.2 ± 10.1%
Bioavailability ([2]; duodenal 20 mg/rat (59.8 / 58.1 mg/kg)): 26.2 ± 8.2%
gabapentin plasma concentration rat1 ([2]; duodenal dose 5 mg/rat): 0 ng/mL
gabapentin plasma concentration rat1 ([2]; duodenal dose 10 mg/rat): 0 ng/mL
gabapentin plasma concentration rat1 ([2]; duodenal dose 20 mg/rat): 0 ng/mL
gabapentin plasma concentration Rat1 ([3]; 0 h): 0 ng/mL
gabapentin plasma concentration Rat1 ([3]; 1 h): 189 ng/mL
Bioavailability ([3]; colonic, percent of intravenous administration): 4.9%
macroscopic observation of colonic mucosa for irritation ([3]; excised colonic segments after 4 hour test period): no histopathological change visible to the naked eye
gabapentin plasma concentration Rat1 [4]: 0 ng/mL

CN(C)C(=N)N=C(N)N [Metformin HCl, metformin hydrochloride, reference compound]
time of plasma concentration maximum after treatment [1]: about 1 hour
